Results from patent US6147121A, “Skin toning by stimulating collagen synthesis/proliferation of dermal fibroblasts” (Societe L'Oreal S.A., priority 1998, dated 2000).

Experiments:
[1] = test system: normal human dermal fibroblast cultures; experiment: effect of resveratrol on the synthesis of collagen: incorporation of tritiated proline into newly synthesized proteins of normal human dermal fibroblast cultures; format: cell-based
Experimental: (§1) Investigating the effect of resveratrol on the synthesis of collagen: This study was carried out by measuring the incorporation of radioactive proline into the proteins newly synthesized by normal human dermal fibroblast cultures. These newly synthesized proteins were predominantly collagen fibers. The fibroblast cultures were conducted according to conventional cell culture techniques, namely, in MEM/M199 medium marketed by Gibco, in the presence of sodium bicarbonate (1.87 mg/ml), of L-glutamine (2 mM), of penicillin (50 IU/ml) and of 10% fetal calf serum (Gibco). The test was carried out on 80% confluent cell cultures in a 24-well plate. […] The labelling with tritiated proline (L-[2,3-^3 H]proline marketed by Amersham, 33 mCi/ml) was conducted for 24 hours. The amount of tritiated proline incorporated was measured at the end of the test by acid precipitation of the proteins on filters and liquid scintillation counting. The results were evaluated relative to a control consisting of cells which were not treated with resveratrol. A positive control (vitamin C at 20 mg/ml) known to stimulate the synthesis of collagen was included in the test as a reference.

[2] = test system: normal human dermal fibroblast cultures; experiment: effect of resveratrol on the proliferation of the fibroblasts of the dermis: incorporation of radioactive thymidine into normal human dermal fibroblast cultures; format: cell-based; details: for tritiated thymidine incorporated (cpm): 48 hours contact, labelling 24 hours, not treated 13,649 cpm
Experimental: Investigating the effect of resveratrol on the proliferation of the fibroblasts of the dermis:
This study was carried out by measuring the incorporation of radioactive thymidine into normal human dermal fibroblast cultures.
The fibroblast cultures were conducted according to conventional cell culture techniques, namely in MEM/M199 medium marketed by Gibco, in the presence of sodium bicarbonate (1.87 mg/ml), of L-glutamine (2 mM), of penicillin (50 IU/ml) and of 10% fetal calf serum (Gibco).
The test was carried out on 80% confluent cell cultures in a 24-well plate. Resveratrol, at the concentration of 1.25 mM and 5 mM, was placed in contact with the cells for 48 hours. The labelling with tritiated thymidine ([methyl-^3 H]thymidine marketed by Amersham, 82 Ci/mmol) was conducted for 24 hours.
The amount of tritiated thymidine incorporated was measured at the end of the test by acid precipitation of the proteins on filters and liquid scintillation counting.
The results were evaluated relative to a control consisting of cells which were not treated with resveratrol.
A positive control (fetal calf serum at 20%) known to stimulate the […] was included in the test as a reference.

[3] = test system: interstitial collagenase (A2058 cells); experiment: effect of resveratrol on the production of interstitial collagenase in a culture of A2058 cells (Elisa); format: cell-based, human
Experimental: Effect of resveratrol on the expression of the collagenases:
The effect of resveratrol on the production of interstitial collagenase was evaluated in a model of culture of A2058 cells (derived from human malanomas: Templeton N. S. et al., Cancer Res., SO.- 54315431(1990)).
The cells were incubated in a phenol red-free MEM medium containing amino acids at the concentration of 2 mM, sodium pyruvate at the concentration of 1 mM and 10% charcoal-treated calf serum. They were then cultured at the density of 20,000 cells per well in the 24 wells of a multiwell plate.
Twenty-four hours after cultering, the cells were contacted with resveratrol. The production of interstitial collagenase was evaluated 96 hours later in the culture medium. This was carried out with the aid of an Elisa kit (Biotrack human MMPL; Amersham).
The resveratrol was tested at the concentrations 2×10^-7 M and 2×10^-6 M.
The results, expressed as percentages, represent the reduction in the production of interstitial collagenase compared with the control, namely, compared with a culture carried out under the same conditions in the absence of resveratrol.

[4] = test system: normal human dermal fibroblast cultures; experiment: effect of resveratrol on the synthesis of collagen: incorporation of tritiated proline into newly synthesized proteins of normal human dermal fibroblast cultures; format: cell-based; design: unit of the concentration uncertain; details: 48 hours contact, labelling 24 hours, not treated 22,528 cpm
Experimental: as §1

[5] = test system: normal human dermal fibroblast cultures; experiment: as above; format: cell-based; design: dose or concentration left out as unconfirmed; details: positive control; not treated 22,528 cpm
Experimental: as §1

Compound	activity at 1250 µM ([1]; Homo sapiens, Fibroblast, 1.25 mM, 48 hours, not treated = 100, p <0.01, read-out: tritiated proline incorporated, % relative to not treated control) [%]	activity at 5000 µM ([1]; Homo sapiens, Fibroblast, 5.00 mM, 48 hours, not treated = 100, p <0.05, read-out: tritiated proline incorporated, % relative to not treated control) [%]	incorporation of proline into collagen (in words) ([1]; conclusion from Table I)	tritiated thymidine incorporated (cpm) ([2]; 1.25 mM)	tritiated thymidine incorporated (cpm) ([2]; 5.00 mM)	activity at 1250 µM ([2]; Homo sapiens, Fibroblast, 1.25 mM, 48 hours, not treated = 100, p <0.05, read-out: tritiated thymidine incorporated, % relative to not treated control) [%]	activity at 5000 µM ([2]; Homo sapiens, Fibroblast, 5.00 mM, 48 hours, not treated = 100, p <0.01, read-out: tritiated thymidine incorporated, % relative to not treated control) [%]	inhibition at 0.2 µM ([3]; Homo sapiens, 0.2 μM, 96 hours, A2058 cells, read-out: % inhibition (reduction in the production of interstitial collagenase compared with the control)) [%]	inhibition at 2 µM ([3]; Homo sapiens, 2 μM, 96 hours, A2058 cells, read-out: % inhibition (reduction in the production of interstitial collagenase compared with the control)) [%]	production of interstitial collagenase by A2058 cells (in words) ([3]; conclusion from Table III)	tritiated proline incorporated (cpm) ([4]; 1.25 (unit uncertain))	tritiated proline incorporated (cpm) ([4]; 5.00 (unit uncertain))	activity at 20000 µg/mL ([1]; Homo sapiens, Fibroblast, 48 h, positive control, 20 mg/ml, not treated = 100, p <0.01, read-out: tritiated proline incorporated, % relative to not treated control) [%]	tritiated proline incorporated (cpm) [5]
Oc1ccc(C=Cc2cc(O)cc(O)c2)cc1 [Resveratrol, 3,4',5-trihydroxystilbene]	121	114	substantially stimulated the incorporation of proline into collagen	15,055 cpm	19,229 cpm	110	141	14	57	reduced the production of interstitial collegenase by the A 2058 cells and this in a dose-dependent manner	27,164 cpm	25,769 cpm	–	–
O=C1O[C@H]([C@@H](O)CO)C(O)=C1O [Vitamin C, reference compound]	–	–	–	–	–	–	–	–	–	–	–	–	162	36,431 cpm
